Data from ChEMBL document CHEMBL3885881, “DrugMatrix”.

Species on record: Rattus norvegicus
Experiment: DrugMatrix - Regimen: Daily Repeat
Type: toxicity, organism-based, Sprague-Dawley
Set-up: regimen Daily Repeat, gender Male, age 6-8 weeks
Conditions: in vivo, po, 25 mg/kg, route oral GAVAGE, dose level Low, vehicle .5 % CMC; for ABSOLUTE BASOPHIL / ABSOLUTE EOSINOPHIL / ABSOLUTE LYMPHOCYTE / ABSOLUTE MONOCYTE / ABSOLUTE SEGMENTED NEUTROPHIL / BASOPHIL / EOSINOPHIL / ERYTHROCYTE COUNT / HEMATOCRIT / HEMOGLOBIN / LEUKOCYTE COUNT / LYMPHOCYTE / MEAN CORPUSCULAR HEMOGLOBIN / MEAN CORPUSCULAR HEMOGLOBIN CONCENTRATION / MEAN CORPUSCULAR VOLUME / MONOCYTE / NEUTROPHIL / NUCLEATED RED BLOOD CELLS / PLATELET COUNT: tissue Blood; for ALANINE AMINOTRANSFERASE / ALBUMIN / ALKALINE PHOSPHATASE / ASPARTATE AMINOTRANSFERASE / BLOOD UREA NITROGEN / CARBON DIOXIDE / CHLORIDE / CHOLESTEROL / CREATINE PHOSPHOKINASE / CREATININE / GLUCOSE / LACTATE DEHYDROGENASE / LIPASE / PHOSPHORUS / POTASSIUM / SODIUM / TOTAL BILIRUBIN / TOTAL PROTEIN / URIC ACID: tissue Plasma

CCCCC1C(=O)N(c2ccccc2)N(c2ccccc2)C1=O [PHENYLBUTAZONE]
ABSOLUTE BASOPHIL (72 h, time 3 day): 0 CELLS/uL
ABSOLUTE EOSINOPHIL (72 h, time 3 day): 0 CELLS/uL
ABSOLUTE LYMPHOCYTE (72 h, time 3 day): 8397.33 CELLS/uL
ABSOLUTE MONOCYTE (72 h, time 3 day): 56.33 CELLS/uL
ABSOLUTE SEGMENTED NEUTROPHIL (72 h, time 3 day): 846.33 CELLS/uL
BASOPHIL (72 h, time 3 day): 0%
EOSINOPHIL (72 h, time 3 day): 0%
ERYTHROCYTE COUNT (72 h, time 3 day): 5.18 x10E6/uL
HEMATOCRIT (72 h, time 3 day): 33.27%
HEMOGLOBIN (72 h, time 3 day): 13.33 G/DL
LEUKOCYTE COUNT (72 h, time 3 day): 9.3 x10E3/uL
LYMPHOCYTE (72 h, time 3 day): 90.67%
MEAN CORPUSCULAR HEMOGLOBIN (72 h, time 3 day): 25.83 pg
MEAN CORPUSCULAR HEMOGLOBIN CONCENTRATION (72 h, time 3 day): 40.17 G/DL
MEAN CORPUSCULAR VOLUME (72 h, time 3 day): 64.37 fL
MONOCYTE (72 h, time 3 day): 0.67%
NEUTROPHIL (72 h, time 3 day): 8.67%
NUCLEATED RED BLOOD CELLS (72 h, time 3 day): 0 /100WBC
PLATELET COUNT (72 h, time 3 day): 982.67 x10E3/uL
ALANINE AMINOTRANSFERASE (72 h, time 3 day): 57 u/L
ALBUMIN (72 h, time 3 day): 4.4 G/DL
ALKALINE PHOSPHATASE (72 h, time 3 day): 377 u/L
ASPARTATE AMINOTRANSFERASE (72 h, time 3 day): 101.33 u/L
BLOOD UREA NITROGEN (72 h, time 3 day): 16.33 mg/dL
CARBON DIOXIDE (72 h, time 3 day): 29.33 mmol/L
CHLORIDE (72 h, time 3 day): 103 MEQ/L
CHOLESTEROL (72 h, time 3 day): 73 mg/dL
CREATINE PHOSPHOKINASE (72 h, time 3 day): 583.33 u/L
CREATININE (72 h, time 3 day): 0.17 mg/dL
GLUCOSE (72 h, time 3 day): 154.67 mg/dL
LACTATE DEHYDROGENASE (72 h, time 3 day): 337.67 u/L
LIPASE (72 h, time 3 day): 8.67 u/L
PHOSPHORUS (72 h, time 3 day): 12.6 mg/dL
POTASSIUM (72 h, time 3 day): 6.38 MEQ/L
SODIUM (72 h, time 3 day): 143.37 MEQ/L
TOTAL BILIRUBIN (72 h, time 3 day): 0.13 mg/dL
TOTAL PROTEIN (72 h, time 3 day): 5.87 G/DL
URIC ACID (72 h, time 3 day): 1.67 mg/dL
ABSOLUTE BASOPHIL (120 h, time 5 day): 0 CELLS/uL
ABSOLUTE EOSINOPHIL (120 h, time 5 day): 72 CELLS/uL
ABSOLUTE LYMPHOCYTE (120 h, time 5 day): 8896 CELLS/uL
ABSOLUTE MONOCYTE (120 h, time 5 day): 33 CELLS/uL
ABSOLUTE SEGMENTED NEUTROPHIL (120 h, time 5 day): 999 CELLS/uL
BASOPHIL (120 h, time 5 day): 0%
EOSINOPHIL (120 h, time 5 day): 0.67%
ERYTHROCYTE COUNT (120 h, time 5 day): 5 x10E6/uL
HEMATOCRIT (120 h, time 5 day): 31.63%
HEMOGLOBIN (120 h, time 5 day): 12.6 G/DL
LEUKOCYTE COUNT (120 h, time 5 day): 10 x10E3/uL
LYMPHOCYTE (120 h, time 5 day): 89%
MEAN CORPUSCULAR HEMOGLOBIN (120 h, time 5 day): 25.27 pg
MEAN CORPUSCULAR HEMOGLOBIN CONCENTRATION (120 h, time 5 day): 39.87 G/DL
MEAN CORPUSCULAR VOLUME (120 h, time 5 day): 63.4 fL
MONOCYTE (120 h, time 5 day): 0.33%
NEUTROPHIL (120 h, time 5 day): 10%
NUCLEATED RED BLOOD CELLS (120 h, time 5 day): 0 /100WBC
PLATELET COUNT (120 h, time 5 day): 635.33 x10E3/uL
ALANINE AMINOTRANSFERASE (120 h, time 5 day): 52 u/L
ALBUMIN (120 h, time 5 day): 4.53 G/DL
ALKALINE PHOSPHATASE (120 h, time 5 day): 362 u/L
ASPARTATE AMINOTRANSFERASE (120 h, time 5 day): 82.33 u/L
BLOOD UREA NITROGEN (120 h, time 5 day): 20 mg/dL
CARBON DIOXIDE (120 h, time 5 day): 25 mmol/L
CHLORIDE (120 h, time 5 day): 105.67 MEQ/L
CHOLESTEROL (120 h, time 5 day): 71.33 mg/dL
CREATINE PHOSPHOKINASE (120 h, time 5 day): 253 u/L
CREATININE (120 h, time 5 day): 0.26 mg/dL
GLUCOSE (120 h, time 5 day): 148 mg/dL
LACTATE DEHYDROGENASE (120 h, time 5 day): 409.67 u/L
LIPASE (120 h, time 5 day): 11 u/L
PHOSPHORUS (120 h, time 5 day): 11.9 mg/dL
POTASSIUM (120 h, time 5 day): 6.52 MEQ/L
SODIUM (120 h, time 5 day): 146.6 MEQ/L
TOTAL BILIRUBIN (120 h, time 5 day): 0.2 mg/dL
TOTAL PROTEIN (120 h, time 5 day): 6.2 G/DL
URIC ACID (120 h, time 5 day): 1.47 mg/dL
